Assay results published in patent US7951232B2, “Surface coating compositions and methods” (Elevance Renewable Sciences, Inc., priority 2006, dated 2011).

Legend:
[1] = tested on: Escherichia coli 0157:H7 ATCC 43895; experiment: MIC and MBC determination in Mueller-Hinton Broth; format: cell-based; settings: 37±2° C., 20-24 hours
Procedure: Efficacy of 9-decenoic acid and the methyl ester of 9-decenoic acid against Pseudomonas aeruginosa ATCC 15442, Escherichia coli 0157:H7 ATCC 43895 and Candida albicans ATCC 10231 was measured through the determination of the minimum inhibitory concentration (MIC) and minimum bacteriocidal concentration (MBC) using the procedures in the Federal Register, June 1994 and the present NCCLS M11-A4 protocol.
Stock cultures of each organism were transferred onto Mueller-Hinton Agar (MHA) plates and incubated for 24±2 hours at 37±2° C. On the day of the test, the top of at least three to five well-isolated colonies were transferred via wire loop to a tube containing 4 to 5 ml of Trypticase Soy Broth (TSB). The TSB culture was incubated for 2 to 6 hours and turbidity was adjusted with sterile saline to achieve the turbidity of the 0.5 McFarland Standard.
The concentrated 9-decenoic acid was diluted 1:40 in Mueller-Hinton Broth (MHB) to yield a 2.5% stock solution. The test solution of the methyl ester of 9-decenoic acid was formulated in the same manner. For each organism, 12 dilutions of the 9-decenoic acid and the methyl ester of 9-decenoic acid in MHB were prepared ranging from 0.2500 to 0.0005%. A 2-ml aliquot of appropriately diluted 9-decenoic acid or the methyl ester of 9-decenoic acid solution was placed in each tube. Each tube was inoculated with 0.05 ml of a 1:10 dilution of one challenge organism. Tubes were incubated at 37±2° C. for 20-24 hours and observed for growth or no growth. […] Controls were run for sterility, viability and organism confirmation. It was determined that all cultures were viable and pure.
The MBC was defined as the concentration of 9-decenoic acid or the methyl ester of 9-decenoic acid that completely eradicated viable organisms from the test system.

[2] = tested on: Pseudomonas aeroginosa, ATCC 15442; experiment: Time-Kill Procedure (ASTM), rate of kill; format: cell-based, Pseudomonas aeruginosa; settings: all concentrations (0.01, 0.05 and 0.1%), after 10 minutes
Procedure: (§1) The rate of kill for these organisms upon exposure to 9-decenoic acid was determined using the American Society for Testing and Materials (ASTM) procedure entitled “Standard Test Method for the Assessment of Microbiocidal Activity of Test Materials Using a Time-Kill Procedure”, October 1998. This procedure incorporates the recommendations described in the “Manual of Clinical Microbiology,”5th ed., edited by A. B. Balows et al., ASM, Washington, and is directed by the Federal Register, June 1994.
(§2) Stock cultures were transferred into TSB and incubated for 18-24 hours at 37±2° C. A second transfer was made onto TSA plates and were incubated for 18-24 hours at 37±2° C. The plates were removed from incubation and the bacterial growth washed from the agar surface using Butterfield's Phosphate Buffered Dilution Water (PBDW). The bacterial suspension was adjusted to contain approximately 10^8 Colony Forming Units (CFU)/ml with PBDW using spectrophometric methods extant in the laboratory.
(§3) The concentrated 9-decenoic acid was diluted 1:40 in filter sterilized isopropanol to yield a 2.5% stock solution. Subsequent dilutions to the 9-decenoic acid stock solutions were made with sterile Deionized Water (DI) to achieve concentrations of 0.1%, 0.05%, 0.01%, and 0.001%. The pH was determined for each dilution; pH values ranged from 4.4-4.1. Additionally, the 9-decenoic acid stock solution was adjusted to pH 7 with 1 N NaOH and serially diluted with sterile DI to achieve concentrations of 1.0%, 0.75% and 0.5%.
(§4) Compliant with the ASTM procedure cited, for each challenge microorganism a 9.9 ml aliquot of the prepared 9-decenoic acid suspension was added to a sterile tube. A 0.1 ml aliquot of the standardized inoculum was added to the 9-decenoic acid solution representing the start of the test exposure. The inoculated 9-decenoic acid solution was immediately mixed thoroughly. The inoculated suspension was held at room temperature for 0.5, 2, 5, 7 and 10 minute exposure times for tests run at ˜pH 4. The pH 7 tests were held at room temperature for 0.5 and 2 minutes.
(§5) At each exposure sample time, a 1.0 ml aliquot of the inoculated 9-decenoic acid suspension was transferred to 9.0 ml of D/E Neutralizing Broth. Additional ten-fold serial dilutions were made in PBDW and plated in duplicate on TSA. All plates were incubated for 48 hours at 37±2° C. and visually examined for growth. The plates are enumerated, recorded and log kill determined for each time point.
(§6) The following study controls were conducted: culture purity, neutralizer sterility, initial suspension population, test population, neutralization verification and a negative control using isopropanol. Culture purity was verified by performing a streak plate for isolated colonies on the each culture used. All cultures were determined to be pure based on consistent colony morphology typical for the test organism. The neutralizer sterility was confirmed by no growth in an incubated sample.
(§7) The population of the initial and test culture were determined by serial dilution, plating and enumerating after incubation. The initial suspension were determined to be ≧10^4 CFU/ml. The test culture population was used for calculation of the log reduction achieved at each time point.
(§8) Neutralization effectiveness was verified by a filtration test. For each organism, four tubes were prepared with 9 ml D/E Neutralizing Broth and fewer than 100 CFU/ml of the organism. A 1.0 ml aliquot of prepared 9-decenoic acid was added to each tube. Immediately, the entire contents of 2 tubes were filtered through a filtration apparatus and rinsed with sterile diluent. The remaining 2 tubes were held at room temperature for 30 minutes and then the entire contents were filtered using the same procedure. The filters were aseptically transferred to TSA plates and incubated for 48 hours at 37±2° C. and visually examined for growth.
(§9) This control was inoculated, subcultured and incubated as in the test procedure.

[3] = tested on: Aureobasidium pullulans ATCC 12536; experiment: Dry film preservative test, growth on PDA agar surface; format: cell-based; settings: 0.5% in PDA agar
Procedure: (§10) The efficacy of 9-decenoic acid and the methyl ester of 9-decenoic acid as a dry film preservative was determined through the incubation of Trichoderma virens ATCC 9645, Cladosporium cladosporiodes ATCC 16022 and Aureobasidium pullulans ATCC 12536 in the presence of varying concentrations of 9-decenoic acid or the methyl ester of 9-decenoic acid on an agar surface.
(§11) Fungal spores were hydrated overnight in 0.1% Tween 80 and then plated on Potato Dextrose Agar (PDA) and incubated at 25-30° C. for 6 days. The spores were washed from the surface with 5 mls of 0.1% Tween 80 and enumerated.
(§12) PDA plates with prepared according to the manufactures instructions through sterilization. The agar was tempered to approximately 50° C. and filter sterilized 9-decenoic acid was added to achieve concentrations of 0.1, 0.5 and 1.0% in the agar. Additionally, one concentration of the methyl ester of 9-decenoic acid (0.5%) was also prepared. The agar was thoroughly mixed and poured into sterile petri plates and allowed to solidify.
(§13) The agar plates were inoculated with the spore solution to achieve 10^2 spores/plate. The plates were incubated at 25-30° C. in Ziploc bags with a wet paper towel to keep the moisture level high. The plates were examined for growth after 4, 7, 16, 24 and 31 days. The percent coverage of growth on the agar surface was recorded at each sample point.

[4] = tested on: Trichoderma virens ATCC 9645; experiment: as above; format: cell-based; settings: 0.5% in PDA agar
Procedure: as §10, §11, §12, §13

[5] = tested on: Cladosporium cladosporiodes ATCC 16022; experiment: as above; format: cell-based; settings: 0.5% in PDA agar
Procedure: as §10, §11, §12, §13

[6] = tested on: Candida albicans, ATCC 10231; experiment: Time-Kill Procedure (ASTM), rate of kill; format: cell-based; settings: all concentrations (0.01, 0.05 and 0.1%), after 10 minutes
Procedure: as §1, §2, §3, §4, §5, §6, §7, §8, §9

[7] = tested on: Escherichia coli 0157:H7, ATCC 43895; experiment: Time-Kill Procedure (ASTM), rate of kill; format: cell-based; settings: all concentrations (0.01, 0.05 and 0.1%), after 10 minutes
Procedure: as §1, §2, §3, §4, §5, §6, §7, §8, §9

[8] = tested on: Lactobacillus casei ATCC 334; experiment: Growth inhibition in MRS medium at various pH levels (OD600); format: cell-based; settings: 0.075% w/v (as 9-DA)
Procedure: Efficacy of potassium salt of 9-DA were tested at various pH levels against the following: Bacillus cereus ATCC 14579, Pediococcus acidolactici ATCC 8042, Pseudomonas straminea ATCC 33636, and Lactobacillus casei ATCC 334. Stock cultures of each organism were transferred into MRS liquid medium. MRS medium (Difco 288130) was purchased from Becton, Dickinson and Company, Sparks, Md. The efficacy of the potassium salt of 9-DA (K-9-DA) was tested at different concentrations and pH levels, including 6.75 (unadjusted), 7.5, and 8.5. The selected organisms were incubated overnight in 5 ml of MRS medium at 35° C. and 250 rpm. MRS media with K-9-DA was prepared, along with a control of straight media (no antimicrobial added). The antimicrobial agent was added by weight/volume percent to the media. The purity, 99% for K-9-DA, was taken into account. The pH adjustments to 7.5 and 8.5 were done with 50% potassium hydroxide. Filter sterilization was used instead of autoclaving to prevent adverse chemical reactions at higher pH and temperature. The target for initial cell density was 10^5 to 10^6 cfu/ml. According to the McFarland standard, 0.01 OD600 is equivalent to approximately 10^8 cfu/ml. To achieve the proper dilution, 30 μl of overnight culture diluted to 0.01 OD600 was added to the 3 ml of media in each tube. […] OD600 readings were taken at 0, 19, 25.5, 42.5 and 49 hours. […]

[9] = tested on: microorganisms of Table 15 with the exception of Bacillus licheniformis; experiment: Growth inhibition in MRS medium (OD600), summary over organisms; format: cell-based; settings: all concentrations tested
Procedure: (§14) Efficacy of the potassium salt of 9-DA was determined through incubation of the following organisms in the presence of varying concentrations of the potassium salt: Pseudomonas straminea ATCC 33636, Bacillus subtilis ATCC 6051, Bacillus licheniformis ATCC 14580, Bacillus cereus ATCC 14579, Pediococcus acidilactici ATCC 8042, and Lactobacillus casei ATCC 334.
(§15) Stock cultures of each organism were transferred into MRS liquid medium. MRS medium (Difco 288130) was purchased from Becton, Dickinson and Company, Sparks, Md.
(§16) The efficacy of different levels of the potassium salt of 9-DA was tested depending on the organism to inhibit the growth of various microorganisms indicated above.
(§17) The selected organisms were incubated overnight in 5 ml of MRS medium at 35° C. and 250 rpm. MRS media with K-9-DA was prepared, along with a control of straight media (no antimicrobial added). The concentrated antimicrobial agents were diluted with the appropriate media required for the respective microorganisms, to reach the required concentrations for the studies as indicated below. The antimicrobial agents were added by weight/volume percent on an ‘as 9-DA’ basis to the media. The purity of the antimicrobial agent (99% for K-9-DA) was taken into account. The pH of the medium was not adjusted. The target for initial cell density was 10^5 to 10^6 cfu/ml. […] OD600 readings were taken at 0, 4, 17, 23 and 47 hours. […]

[10] = tested on: Pediococcus acidolactici ATCC 8042; experiment: Growth inhibition in MRS medium at various pH levels (OD600); format: cell-based, Pediococcus acidilactici; settings: 0.05% w/v (as 9-DA)
Procedure: Efficacy of potassium salt of 9-DA were tested at various pH levels against the following: Bacillus cereus ATCC 14579, Pediococcus acidolactici ATCC 8042, Pseudomonas straminea ATCC 33636, and Lactobacillus casei ATCC 334. Stock cultures of each organism were transferred into MRS liquid medium. MRS medium (Difco 288130) was purchased from Becton, Dickinson and Company, Sparks, Md. The efficacy of the potassium salt of 9-DA (K-9-DA) was tested at different concentrations and pH levels, including 6.75 (unadjusted), 7.5, and 8.5. The selected organisms were incubated overnight in 5 ml of MRS medium at 35° C. and 250 rpm. MRS media with K-9-DA was prepared, along with a control of straight media (no antimicrobial added). The antimicrobial agent was added by weight/volume percent to the media. The purity, 99% for K-9-DA, was taken into account. The pH adjustments to 7.5 and 8.5 were done with 50% potassium hydroxide. Filter sterilization was used instead of autoclaving to prevent adverse chemical reactions at higher pH and temperature. The target for initial cell density was 10^5 to 10^6 cfu/ml. According to the McFarland standard, 0.01 OD600 is equivalent to approximately 10^8 cfu/ml. To achieve the proper dilution, 30 μl of overnight culture diluted to 0.01 OD600 was added to the 3 ml of media in each tube. The tubes were incubated at 35° C. with the exception of Pseudomonas strains which were incubated at 30° C. Treatments were all done in duplicate. All strains were shaken at 250 rpm, with the exception of Lactobacillus (because it is anaerobic). OD600 readings were taken at 0, 19, 25.5, 42.5 and 49 hours.
“Percent reduction in growth vs. control” was defined as (1−abs. of treatment/abs. of control)×100.

[11] = tested on: Bacillus licheniformis ATCC 14580; experiment: Growth inhibition in MRS medium (OD600); format: cell-based; settings: 0.075% w/v 9-DA from K9-DA, pH not adjusted, listed as potassium 9-DA
Procedure: as §14, §15, §16, §17

C=CCCCCCCCC(=O)OC [Methyl ester of 9-decenoic acid, methyl ester of 9-decenoic acid]
MIC ([1]; Mueller-Hinton Broth): 0.1250%
MBC ([1]; no-growth tubes subcultured on TSA): 0.1250%
log reduction in time kill test [2]: < 1 log
time up to which growth of the culture was significantly inhibited [3]: 16 days
Percentage coverage of agar surface ([3]; 4 days): 0%
Percentage coverage of agar surface ([3]; 7 days): 2.5%
Percentage coverage of agar surface ([3]; 16 days): 10%
Percentage coverage of agar surface ([3]; 24 days): 50%
Percentage coverage of agar surface ([3]; 31 days): 75%
time up to which growth of the culture was significantly inhibited [4]: 4 days
Percentage coverage of agar surface ([4]; 4 days): 60%
Percentage coverage of agar surface ([4]; 7 days): 95%
Percentage coverage of agar surface ([4]; 16 days): 100%
Percentage coverage of agar surface ([4]; 24 days): 100%
Percentage coverage of agar surface ([4]; 31 days): 100%
time up to which growth of the culture was significantly inhibited [5]: 4 days
Percentage coverage of agar surface ([5]; 4 days): 10%
Percentage coverage of agar surface ([5]; 7 days): 50%
Percentage coverage of agar surface ([5]; 16 days): 50%
Percentage coverage of agar surface ([5]; 24 days): 50%
Percentage coverage of agar surface ([5]; 31 days): 50%
log reduction in time kill test [6]: < 1 log
log reduction in time kill test [7]: < 1 log

C=CCCCCCCCC(=O)O.[K] [K9-DA, Potassium-9 Decenoic Acid]
% reduction in growth vs. control ([8]; Non-pH adjusted (6.75)): 88.4%
% reduction in growth vs. control ([8]; pH 7.5): 91.7%
reduction in growth when compared to controls [9]: ≥ 95%
% reduction in growth vs. control ([10]; Non-pH adjusted (6.75)): 90.6%
% reduction in growth vs. control ([10]; pH 7.5): 93.2%
% reduction in growth vs. control ([10]; pH 8.5): 95.6%
% reduction in growth vs. control [11]: 88.63%
